Experimental data as given in US11345912B2, “Directed evolution of multivalent glycopeptides that tightly bind to target proteins” (Brandeis University, priority 2013, dated 2022).

System: 2G12
Assay: Binding curve and KD determination of 2G12-glycopeptide interaction (radiolabeled glycopeptide, protein G magnetic bead capture, scintillation counting)
Procedure: The resulting mRNAs were purified by denaturing PAGE or MEGAclear kit (Ambion), and 1 μM RNA was used in PURE system translation (reaction volume of translation varied). Typically, 25 μL of translated reaction was diluted with 100 μL of binding buffer (50 mM Tris-HCl, pH 7.8, 300 mM NaCl, 5 mM β-mercaptoethanol) and 25 μL of Ni-NTA agarose suspension (Qiagen), and tumbled at room temperature for 1 h. The resins were transferred to 0.22 μm spin-filter rinsing with 100 μL of bind buffer, and washed with 3×200 μL of bind buffer and 2×200 μL of wash buffer (50 mM Tris-HCl, pH 7.8, 5 mM β-mercaptoethanol). The bound peptides were eluted with 2×25 μL of 0.1% TFA. The eluted peptides were analyzed by MALDI-TOF MS, using α-Cyano-4-hydroxycinnamic acid matrix (Sigma), with or without desalting with ZipTip C18 resin (Millipore). For calibration of MALDI-TOF-MS, at least two of the following standards, bovine insulin, E. coli thioredoxin and/or horse apomyoglobin were used. To quantitate peptide yields, the radioactivities were measured by liquid scintillation counting. For the click reaction, the translated and purified peptides were mixed with 0.1% (v/v) Triton X-100, and then dialyzed against H2O containing 0.1% (v/v) Triton X-100 using Slide-A-Lyzer MINI Dialysis Devices, 3.5K MWCO (Thermo Scientific) overnight to desalt. After dialysis, the peptides were divided into two portions: one was glycosylated via the click reaction, while the other was saved as a non-glycosylated peptide control. […] The glycosylated peptide (<4 pmol) was incubated with 100 nM 2G12 in selection buffer (40 μL) at room temp. The solution was then tumbled 30 min with 0.12 mg of equilibrated Dynabeads Protein G to capture 2G12-glycopeptide complex. Beads were then washed with 3×40 μL of selection buffer and resuspended in 10 μL of selection buffer. The resuspended beads were heated at 70° C. for 30 min to denature 2G12 and elute glycopeptides, chilled on ice for 5 min, and tumbled at room temperature for 10 min. The magnetically isolated supernatant was recovered and the beads were rinsed with 10 μL of selection buffer.
Then, the solution was added to 0.12 mg of pre-equilibrated Dynabeads Protein G and tumbled at room temperature for 30 min. The supernatant was removed and the beads were washed with 3×40 μL of selection buffer. The radioactivities of the supernatant and wash solutions were measured by liquid scintillation counting as unbound fractions. […] The beads were resuspended in 40 μL of selection buffer, heated at 70° C. for 30 min to elute the bound glycopeptides, chilled on ice for 5 min, and tumbled at room temperature for 10 min. The supernatant was removed, and the beads were washed with 40 μL of selection buffer and resuspended in 40 μL of selection buffer. The radioactivities of these solutions and suspensions were measured by liquid scintillation counting separately and the values were combined as apparent bound fractions. […] All experiments were done at least in triplicate. KDs were calculated as described in the footnote of Table 4 (below).

Compound | Fmax [%] (Table 6 mutational analysis, radioactive bead binding assay) | Kd (Table 6 mutational analysis, radioactive bead binding assay, ribosomally translated) | Fmax [%] (Table 4, maximal fraction bound from curve fit, error = standard error of fit) | Kd (Table 4, ribosomally translated radiolabeled glycopeptide with His6/FLAG tag, room temperature, fit Fbound=(Fmax[2G12])/(KD+[2G12]), error = standard error of fit)
CC[C@H](C)[C@H](NC(=O)[C@H](CCCNC(=N)N)NC(=O)[C@H](CCCNC(=N)N)NC(=O)CNC(=O)[C@H](CC(=O)O)NC(=O)[C@H](CC(N)=O)NC(=O)[C@H](CC(C)C)NC(=O)[C@@H](NC(=O)[C@H](CCc1cn(C2CCC(OC3O[C@H](CO[C@H]4O[C@H](CO[C@H]5O[C@H](CO)[C@@H](O)[C@H](O)[C@@H]5O[C@H]5O[C@H](CO)[C@@H](O)[C@H](O)[C@@H]5O)[C@@H](O)[C@H](O[C@H]5O[C@H](CO)[C@@H](O)[C@H](O)[C@@H]5O[C@H]5O[C@H](CO)[C@@H](O)[C@H](O)[C@@H]5O)[C@@H]4O)[C@@H](O)[C@H](O[C@H]4O[C@H](CO)[C@@H](O)[C@H](O)[C@@H]4O[C@H]4O[C@H](CO)[C@@H](O)[C@H](O)[C@@H]4O[C@H]4O[C@H](CO)[C@@H](O)[C@H](O)[C@@H]4O)[C@@H]3O)CC2)nn1)NC=O)C(C)C)C(=O)N[C@H](C(=O)N[C@@H](CCC(N)=O)C(=O)N[C@@H](CCc1cn(C2CCC(OC3O[C@H](CO[C@H]4O[C@H](CO[C@H]5O[C@H](CO)[C@@H](O)[C@H](O)[C@@H]5O[C@H]5O[C@H](CO)[C@@H](O)[C@H](O)[C@@H]5O)[C@@H](O)[C@H](O[C@H]5O[C@H](CO)[C@@H](O)[C@H](O)[C@@H]5O[C@H]5O[C@H](CO)[C@@H](O)[C@H](O)[C@@H]5O)[C@@H]4O)[C@@H](O)[C@H](O[C@H]4O[C@H](CO)[C@@H](O)[C@H](O)[C@@H]4O[C@H]4O[C@H](CO)[C@@H](O)[C@H](O)[C@@H]4O[C@H]4O[C@H](CO)[C@@H](O)[C@H](O)[C@@H]4O)[C@@H]3O)CC2)nn1)C(=O)N[C@@H](CO)C(=O)N[C@@H](CS)C(=O)N[C@@H](CCC(=O)O)C(=O)N[C@@H](CC(C)C)C(=O)N1CCC[C@H]1C(=O)N[C@@H](CCc1cn(C2CCC(OC3O[C@H](CO[C@H]4O[C@H](CO[C@H]5O[C@H](CO)[C@@H](O)[C@H](O)[C@@H]5O[C@H]5O[C@H](CO)[C@@H](O)[C@H](O)[C@@H]5O)[C@@H](O)[C@H](O[C@H]5O[C@H](CO)[C@@H](O)[C@H](O)[C@@H]5O[C@H]5O[C@H](CO)[C@@H](O)[C@H](O)[C@@H]5O)[C@@H]4O)[C@@H](O)[C@H](O[C@H]4O[C@H](CO)[C@@H](O)[C@H](O)[C@@H]4O[C@H]4O[C@H](CO)[C@@H](O)[C@H](O)[C@@H]4O[C@H]4O[C@H](CO)[C@@H](O)[C@H](O)[C@@H]4O)[C@@H]3O)CC2)nn1)C(=O)N[C@H](C(=O)N[C@@H](CCCNC(=N)N)C(=O)N[C@@H](CCCNC(=N)N)C(=O)N[C@@H](CO)C(=O)NCC(=O)N[C@@H](CO)C(=O)NCC(=O)N[C@@H](CO)C(=O)N[C@@H](CC(C)C)C(=O)NCC(=O)N[C@@H](Cc1c[nH]cn1)C(=O)N[C@@H](Cc1c[nH]cn1)C(=O)N[C@@H](Cc1c[nH]cn1)C(=O)N[C@@H](Cc1c[nH]cn1)C(=O)N[C@@H](Cc1c[nH]cn1)C(=O)N[C@@H](Cc1c[nH]cn1)C(=O)N[C@@H](CCCNC(=N)N)C(=O)N[C@@H](CC(=O)O)C(=O)N[C@@H](Cc1ccc(O)cc1)C(=O)N[C@@H](CCCCN)C(=O)N[C@@H](CC(=O)O)C(=O)N[C@@H](CC(=O)O)C(=O)N[C@@H](CC(=O)O)C(=O)N[C@@H](CC(=O)O)C(=O)N[C@@H](CCCCN)C(=O)O)C(C)C)C(C)C (stereo partly shown) [Clone 10F5-Δ11, XVLNDGRRIVQXSCELPXVRRS] | 17% | > 200 nM |  | 
CC[C@H](C)[C@H](NC(=O)[C@H](CCCNC(=N)N)NC(=O)[C@@H]1CCCN1C(=O)[C@H](CC(=O)O)NC(=O)[C@H](CCC(=O)O)NC(=O)[C@@H](NC(=O)[C@H](C)NC(=O)[C@H](Cc1ccc(O)cc1)NC(=O)[C@H](CCC(N)=O)NC(=O)[C@H](CCc1cn(C2CCC(OC3O[C@H](CO[C@H]4O[C@H](CO[C@H]5O[C@H](CO)[C@@H](O)[C@H](O)[C@@H]5O[C@H]5O[C@H](CO)[C@@H](O)[C@H](O)[C@@H]5O)[C@@H](O)[C@H](O[C@H]5O[C@H](CO)[C@@H](O)[C@H](O)[C@@H]5O[C@H]5O[C@H](CO)[C@@H](O)[C@H](O)[C@@H]5O)[C@@H]4O)[C@@H](O)[C@H](O[C@H]4O[C@H](CO)[C@@H](O)[C@H](O)[C@@H]4O[C@H]4O[C@H](CO)[C@@H](O)[C@H](O)[C@@H]4O[C@H]4O[C@H](CO)[C@@H](O)[C@H](O)[C@@H]4O)[C@@H]3O)CC2)nn1)NC(=O)[C@H](CCCNC(=N)N)NC(=O)[C@H](Cc1ccc(O)cc1)NC(=O)[C@H](CCC(=O)O)NC(=O)[C@H](CC(C)C)NC(=O)[C@H](CO)NC(=O)[C@H](CC(N)=O)NC(=O)[C@H](CC(C)C)NC(=O)[C@@H](NC(=O)[C@H](CO)NC(=O)[C@H](CCCNC(=N)N)NC(=O)[C@H](CCc1cn(C2CCC(OC3O[C@H](CO[C@H]4O[C@H](CO[C@H]5O[C@H](CO)[C@@H](O)[C@H](O)[C@@H]5O[C@H]5O[C@H](CO)[C@@H](O)[C@H](O)[C@@H]5O)[C@@H](O)[C@H](O[C@H]5O[C@H](CO)[C@@H](O)[C@H](O)[C@@H]5O[C@H]5O[C@H](CO)[C@@H](O)[C@H](O)[C@@H]5O)[C@@H]4O)[C@@H](O)[C@H](O[C@H]4O[C@H](CO)[C@@H](O)[C@H](O)[C@@H]4O[C@H]4O[C@H](CO)[C@@H](O)[C@H](O)[C@@H]4O[C@H]4O[C@H](CO)[C@@H](O)[C@H](O)[C@@H]4O)[C@@H]3O)CC2)nn1)NC=O)[C@@H](C)O)[C@@H](C)O)C(=O)N[C@@H](CCCNC(=N)N)C(=O)N[C@@H](CCc1cn(C2CCC(OC3O[C@H](CO[C@H]4O[C@H](CO[C@H]5O[C@H](CO)[C@@H](O)[C@H](O)[C@@H]5O[C@H]5O[C@H](CO)[C@@H](O)[C@H](O)[C@@H]5O)[C@@H](O)[C@H](O[C@H]5O[C@H](CO)[C@@H](O)[C@H](O)[C@@H]5O[C@H]5O[C@H](CO)[C@@H](O)[C@H](O)[C@@H]5O)[C@@H]4O)[C@@H](O)[C@H](O[C@H]4O[C@H](CO)[C@@H](O)[C@H](O)[C@@H]4O[C@H]4O[C@H](CO)[C@@H](O)[C@H](O)[C@@H]4O[C@H]4O[C@H](CO)[C@@H](O)[C@H](O)[C@@H]4O)[C@@H]3O)CC2)nn1)C(=O)N[C@@H](C)C(=O)N[C@@H](CO)C(=O)N[C@H](C(=O)N1CCC[C@H]1C(=O)N[C@@H](Cc1ccc(O)cc1)C(=O)N[C@H](C(=O)N[C@@H](Cc1ccc(O)cc1)C(=O)N[C@@H](Cc1c[nH]c2ccccc12)C(=O)N[C@@H](Cc1c[nH]c2ccccc12)C(=O)N1CCC[C@H]1C(=O)NCC(=O)N[C@@H](CO)C(=O)NCC(=O)N[C@@H](CO)C(=O)N[C@@H](CC(C)C)C(=O)NCC(=O)N[C@@H](Cc1c[nH]cn1)C(=O)N[C@@H](Cc1c[nH]cn1)C(=O)N[C@@H](Cc1c[nH]cn1)C(=O)N[C@@H](Cc1c[nH]cn1)C(=O)N[C@@H](Cc1c[nH]cn1)C(=O)N[C@@H](Cc1c[nH]cn1)C(=O)N[C@@H](CCCNC(=N)N)C(=O)N[C@@H](CC(=O)O)C(=O)N[C@@H](Cc1ccc(O)cc1)C(=O)N[C@@H](CCCCN)C(=O)N[C@@H](CC(=O)O)C(=O)N[C@@H](CC(=O)O)C(=O)N[C@@H](CC(=O)O)C(=O)N[C@@H](CC(=O)O)C(=O)N[C@@H](CCCCN)C(=O)O)[C@@H](C)O)[C@@H](C)CC (stereo partly shown) [Clone 10F9, XRSTLNSLEYRXQYATEDPRIRXASIPYTYWWP] |  |  | 86 ± 1.2% | 3.1 ± 0.17 nM
